The results in this text go back to patent US9550782B2, “Compounds and methods for treating diabetes” (Medivation Technologies, Inc., priority 2011, dated 2017).

What is called inhibition is the share of the control response that was lost under treatment.

Like-named read-outs stand apart in the source and are kept apart here.

In assay [1] the target is T1, human recombinant adrenergic α2A receptor (Homo sapiens, UniProt P08913).
T1 construct: expressed in transfected cells; host or cells: insect Sf9 cells
T1 sequence (P08913 1-465): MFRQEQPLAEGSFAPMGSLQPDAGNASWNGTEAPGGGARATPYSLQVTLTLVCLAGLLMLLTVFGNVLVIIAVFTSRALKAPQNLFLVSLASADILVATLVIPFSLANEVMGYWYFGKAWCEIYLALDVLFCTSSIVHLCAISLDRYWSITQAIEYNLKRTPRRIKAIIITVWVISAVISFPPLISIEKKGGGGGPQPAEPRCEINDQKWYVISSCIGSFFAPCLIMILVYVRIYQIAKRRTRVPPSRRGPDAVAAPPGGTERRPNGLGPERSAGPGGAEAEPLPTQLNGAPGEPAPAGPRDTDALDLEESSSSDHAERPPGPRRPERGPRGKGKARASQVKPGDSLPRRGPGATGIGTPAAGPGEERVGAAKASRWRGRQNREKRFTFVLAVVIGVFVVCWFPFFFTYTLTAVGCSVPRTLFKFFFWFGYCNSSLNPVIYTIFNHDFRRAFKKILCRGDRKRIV
Nature of the assay: Radioligand binding, adrenergic α2A ([3H]MK-912). The note with it: [3H]MK-912. An outline of the steps:
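Receptor expressed in Sf9 cells, in 50 mM Tris-HCl pH 7.4, 12.5 mM MgCl2, 2 mM EDTA; compounds incubated with 1 nM [3H]MK-912 for 60 min at 25 °C.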

Assay [2] has as its target T2, human recombinant adrenergic α1D receptor (Homo sapiens, UniProt P25100).
T2 construct: expressed in transfected cells; host or cells: HEK-293
T2 sequence (P25100 1-572): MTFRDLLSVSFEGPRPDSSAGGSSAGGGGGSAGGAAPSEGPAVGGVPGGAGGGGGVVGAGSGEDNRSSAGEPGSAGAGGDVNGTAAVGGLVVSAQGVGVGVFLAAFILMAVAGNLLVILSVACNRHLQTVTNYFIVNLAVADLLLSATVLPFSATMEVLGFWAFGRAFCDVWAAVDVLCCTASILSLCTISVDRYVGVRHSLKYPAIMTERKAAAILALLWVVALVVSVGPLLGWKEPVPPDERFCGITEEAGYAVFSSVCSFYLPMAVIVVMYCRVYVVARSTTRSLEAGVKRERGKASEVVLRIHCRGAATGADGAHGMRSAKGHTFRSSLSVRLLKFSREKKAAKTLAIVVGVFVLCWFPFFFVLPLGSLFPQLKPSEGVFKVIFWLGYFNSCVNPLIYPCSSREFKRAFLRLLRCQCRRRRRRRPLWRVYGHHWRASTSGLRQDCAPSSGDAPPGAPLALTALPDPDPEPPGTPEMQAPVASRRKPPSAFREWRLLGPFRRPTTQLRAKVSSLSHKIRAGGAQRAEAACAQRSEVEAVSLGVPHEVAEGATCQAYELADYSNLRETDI
Nature of the assay: Radioligand binding, adrenergic α1D ([3H]Prazosin). The method, then:
Compounds were incubated with 0.6 nM [^3H]Prazosin for 60 min at 25° C. Non-specific binding was estimated in the presence of 10 μM phentolamine. Receptor proteins were filtered and washed, the filters were then counted to determine [^3H]Prazosin specifically bound. […] Biochemical assay results are presented as the percent inhibition of specific binding in Table B1.

Assay [3] deals with T3, rat adrenergic α1B receptor (Rattus norvegicus, UniProt P15823).
T3 construct: rat adrenergic α1B receptor obtained from Wistar Rat liver; from tissue; host or cells: Wistar rat liver
T3 sequence (P15823 1-515): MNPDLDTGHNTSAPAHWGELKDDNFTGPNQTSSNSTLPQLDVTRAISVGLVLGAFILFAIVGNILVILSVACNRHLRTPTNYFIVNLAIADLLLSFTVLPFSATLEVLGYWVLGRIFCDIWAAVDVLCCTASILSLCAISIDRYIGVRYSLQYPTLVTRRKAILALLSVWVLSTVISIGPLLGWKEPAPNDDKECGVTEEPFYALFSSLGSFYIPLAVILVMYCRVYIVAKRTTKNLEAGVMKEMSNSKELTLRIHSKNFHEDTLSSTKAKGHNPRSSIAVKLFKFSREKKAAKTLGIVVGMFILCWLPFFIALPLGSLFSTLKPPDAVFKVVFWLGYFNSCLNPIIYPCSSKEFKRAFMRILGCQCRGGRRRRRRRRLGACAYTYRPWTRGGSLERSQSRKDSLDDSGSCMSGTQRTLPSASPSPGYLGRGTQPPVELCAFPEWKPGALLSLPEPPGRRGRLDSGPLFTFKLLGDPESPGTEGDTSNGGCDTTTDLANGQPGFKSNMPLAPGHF
Nature of the assay: Radioligand binding, adrenergic α1B ([3H]Prazosin). More on the design: species or system Wistar Rat. An outline of the steps: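 Specific binding, taken as total minus that remaining with 10 μM phentolamine, is measured after filtration and counting. Rat liver receptor preparation and 0.25 nM [3H]prazosin are incubated with compound in 50 mM Tris-HCl (pH 7.4, 0.5 mM EDTA) at 25° C for 60 min. Activity is reported as percent inhibition.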

For assay [4], the target named is T4, human recombinant adrenergic α2B receptor (Homo sapiens, UniProt P18089).
T4 construct: expressed in transfected cells; host or cells: CHO-K1
T4 sequence (P18089 1-450): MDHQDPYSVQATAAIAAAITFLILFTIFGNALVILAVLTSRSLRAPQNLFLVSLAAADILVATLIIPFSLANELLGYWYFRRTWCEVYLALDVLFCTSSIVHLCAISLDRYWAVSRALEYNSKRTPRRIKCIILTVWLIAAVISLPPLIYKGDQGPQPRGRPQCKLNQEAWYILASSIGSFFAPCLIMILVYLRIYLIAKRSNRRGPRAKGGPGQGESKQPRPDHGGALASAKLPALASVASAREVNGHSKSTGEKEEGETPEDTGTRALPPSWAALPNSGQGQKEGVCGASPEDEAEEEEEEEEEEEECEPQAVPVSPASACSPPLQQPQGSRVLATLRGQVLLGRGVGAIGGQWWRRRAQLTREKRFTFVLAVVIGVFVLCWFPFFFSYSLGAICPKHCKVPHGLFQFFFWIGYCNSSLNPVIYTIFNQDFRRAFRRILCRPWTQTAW
Nature of the assay: Radioligand binding, adrenergic α2B ([3H]Rauwolscine). An outline of the steps:
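Membranes from CHO-K1 cells expressing human recombinant α2B, in 50 mM Tris-HCl pH 7.4, 12.5 mM MgCl2, 1 mM EDTA, 0.2% BSA, incubated with compound and 2.5 nM [3H]Rauwolscine, 60 min, 25 °C.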

For `CCC(O)(Cn1c2c(c3cc(C)ccc31)CN(C)CC2)c1ccc(F)cc1` (centres unmarked) [compound 34], the inhibition at 0.1 µM is 28% in assay [1] (read-out: Percentage inhibition of ligand binding, Adrenergic α2A (0.1 μM), compound at 0.1 μM, repeat datapoints each shown); 2% in assay [2] (read-out: Percentage inhibition of ligand binding, Adrenergic α1D (0.1 μM), compound at 0.1 μM, repeat datapoints each shown); 30% in assay [3] (read-out: Percentage inhibition of ligand binding, Adrenergic α1B (0.1 μM), compound at 0.1 μM, repeat datapoints each shown); 38% in assay [4] (read-out: Percentage inhibition of ligand binding, Adrenergic α2B (0.1 μM), compound at 0.1 μM, repeat datapoints each shown).

Turning to `Cc1ccc2c(c1)c1c(n2CCc2sccc2C)CCN(C)C1` [compound 308], the inhibition at 0.1 µM in assay [1] (compound at 0.1 μM, read-out: Percentage inhibition of ligand binding, Adrenergic α2A) is 86%; in assay [2] (compound at 0.1 μM, read-out: Percentage inhibition of ligand binding, Adrenergic α1D) it was 56%; in assay [3] (compound at 0.1 μM, read-out: Percentage inhibition of ligand binding, Adrenergic α1B) it was 79%; in assay [4] (compound at 0.1 μM, read-out: Percentage inhibition of ligand binding, Adrenergic α2B) it was 97%.
